Values of other authors, collected in US20130172186A1 (priority 2010, published 2013).
Read-outs that look alike come from different tables or passages of the source.

Tests used:
[1] = tested on: phytoalexins and phenols in potato tubers; conditions: tubers from treated plants after P. infestans challenge
P. cinnamomi = conditions: 40 μg/ml phosphonate in culture, 4 days later

Compound: CCO[PH](=O)O [fosetyl-Al, aluminium tris(o-etyl phosphonate)]
- increase of accumulation of phenols vs control tubers [1]: fivefold
- increase of accumulation of phytoalexins vs control tubers [1]: approximately tenfold
- observed instances in which pathogen growth was arrested at the local hypersensitive cell death sites (P. nicotianae; in vivo): 86%

Compound: phosphite
- observed instances in which pathogen growth was arrested at the local hypersensitive cell death sites (P. nicotianae; fosetyl-Al (100 μg/ml)- or phosphite (70 μg/ml)-treated tobacco seedlings, in 24 h): 86%

Compound: phosphonate
- P. cinnamomi growth inhibited (P. cinnamomi): about 70%
